{"source": "patent US8399383B2", "about": "“Protein chips for high throughput screening of protein activity” (Yale University, priority 2000, dated 2013)", "target": "human protein kinase A (PKA) (Homo sapiens, UniProt P17612)", "test": "Kinase/inhibitor assay on protein chip (33P-γ-ATP phosphorylation)", "format": "biochemical", "conditions": "peptide and MBP substrates; different concentrations of inhibitor; FIG. 7", "experimental": "Substrates were bound to the surface of the GPTS-treated microwells on the protein chip at room temperature for one hour, then blocked with 1% BSA and 100 mM Tris pH 7.5, and washed three times with TBS buffer. Kinases and different concentrations of kinase inhibitors were added to the microwells in the presence of ^33P-γ-ATP. The phosphorylation reaction was carried out at 30° C. for thirty minutes. After completion of the reaction, the protein chip was washed extensively with TBS buffer at room temperature, and then allowed to dry. Phosphorylation signals were obtained by exposing the protein chip to either X-ray film or a phosphoimager.\nA human protein kinase A (PKA), a human map kinase (MAPK), three yeast PKA homologs (TPK1, TPK2 and TPK3), and two other yeast protein kinases (HSL1 and RCK1) were tested against two substrates (i.e., a protein substrate for PKA and a commonly used kinase substrate, MBP) using different concentrations of PKIA (a specific human PKA inhibitor) or SB202190 (a MAPK inhibitor).", "note": "Entries after “also recorded” stand apart in the source; their conditions may differ."}
{"smiles": "Oc1ccc(-c2nc(-c3ccncc3)c(-c3ccc(F)cc3)[nH]2)cc1", "note": "[SB202190]", "values": [{"measurement": "inhibition of PKA activity", "value": "did not inhibit; also recorded: did not show any inhibitory effect"}]}
